Test results from patent publication US20070224267A1, “Ambroxol for the treatment of painful conditions in the mouth and pharyngeal cavity” (priority 2002, published 2007).
Where a name gives a salt, the structure may show the parent alone.

How the values were obtained:
[1] = tested on: patients with acute sore throat; test: Clinical trial of suckable tablets containing 20 mg ambroxol hydrochloride vs placebo in acute sore throat (Example 1); format: in vivo
Procedure: A multi-centred, prospective, placebo-controlled, randomised double-blind trial was carried out over two days' treatment with up to 6 suckable tablets containing ambroxol hydrochloride per day. Patients: 218 patients (97 men, 121 women) with an average age of 39.4±15 years (range from 17-81 years) were recruited; of these 215 patients were treated: 107 with 20 mg of ambroxol and 108 with placebo. 26 patients stopped the treatment early (13 in each treatment group). The intent-to-treat (ITT) population consisted of 208 patients (105 treated with ambroxol and 103 given the placebo); 196 patients formed the per-protocol (PP) population (97 with test substance and 99 with placebo). For the drug safety analysis, all the patients treated were studied. Treatments: Double-blind treatment with up to 6 suckable tablets per day, which either contained 20 mg of ambroxol or constituted a placebo (suckable tablet without the active substance, but with a marked flavour of peppermint similar to the test substance). End points: The average pain reduction, weighted for time, during the first 3 hours after administration of the first suckable tablet, standardised to the degree of initial pain (SPIDnorm); moreover, the assessment of effectiveness and tolerance by the patient at the end of each day of treatment.

[2] = tested on: patients with acute sore throat; test: Clinical trial of suckable tablets containing 20 or 30 mg ambroxol hydrochloride vs placebo in acute sore throat (Example 2); format: in vivo; details: for average SPIDnorm (±SD) after the first suckable tablet: time-weighted average pain reduction in first 3 hours, standardised to initial pain, placebo 0.38±0.28
Procedure: A multi-centred, prospective, placebo-controlled, randomised double-blind trial was carried out over three days' treatment with up to 6 suckable tablets containing ambroxol hydrochloride per day. Patients: 331 ambulant patients with acute uncomplicated sore throats of at least moderate severity but with no bacterial pharyngitis were investigated. Treatments: Double-blind treatment with up to 6 suckable tablets per day containing either 20 mg or 30 mg of ambroxol hydrochloride or constituting a placebo (suckable tablet without the active substance, but again with a marked flavour of peppermint similar to the test substance). End points: The average pain reduction, weighted for time, during the first 3 hours after administration of the first suckable tablet, standardised to the degree of initial pain (SPIDnorm); moreover, the assessment of effectiveness and tolerance by the patient at the end of each day of treatment.

[3] = up to 6 suckable tablets of 20 mg per day, two days, vs placebo

Nc1c(Br)cc(Br)cc1CN[C@H]1CC[C@H](O)CC1 [ambroxol hydrochloride, trans-4-[(2-amino-3,5-dibromobenzyl)amino]cyclohexano hydrochloride]
average SPIDnorm (±SD) after the first suckable tablet ([1]; 20 mg suckable tablet, time-weighted average pain reduction in first 3 hours, standardised to initial pain, placebo 0.28±0.25): 0.39±0.27 | assessment of effectiveness by the patient at the end of each day of treatment [1, 3]: statistically significantly larger number of patients reported a higher degree of effectiveness | tolerance [1, 3]: tolerated just as well as the placebo | average SPIDnorm (±SD) after the first suckable tablet ([2]; 20 mg suckable tablet): 0.53±0.28 | average SPIDnorm (±SD) after the first suckable tablet ([2]; 30 mg suckable tablet): 0.50±0.30 | assessment of effectiveness by the patient at the end of each day of treatment ([2]; up to 6 suckable tablets of 20 or 30 mg per day, three days, vs placebo): statistically significantly larger number of patients reported a higher degree of effectiveness | tolerance ([2]; up to 6 suckable tablets per day, three days, all dosages (20 and 30 mg), vs placebo): tolerated just as well as the placebo
